From PubChem BioAssay (NCI)
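Growth conditions: 96-well plates. Treatment: test compound, 48 hours, 5 concentrations. Analysis: linear interpolation between bracketing concentrations; unreached endpoints set to highest concentration. GI50 marks 50% less growth. The concentration for full growth arrest is given as TGI.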

Columns and labels:
Experiment in all cases: NCI anticancer screen, dose series, 48 h
HL-60(TB) leukemia = system: HL-60(TB) leukemia
SK-MEL-28 melanoma = system: SK-MEL-28 melanoma
MDA-MB-435 = system: MDA-MB-435
HOP-62 NSCLC = system: HOP-62 NSCLC
DU-145 prostate = system: DU-145 prostate
U251 CNS = system: U251 CNS
CCRF-CEM leukemia = system: CCRF-CEM leukemia
MALME-3M melanoma = system: MALME-3M melanoma
SR leukemia = system: SR leukemia
SNB-19 CNS = system: SNB-19 CNS
HCT-15 colon = system: HCT-15 colon
SF-539 CNS = system: SF-539 CNS
OVCAR-5 ovarian = system: OVCAR-5 ovarian
OVCAR-4 ovarian = system: OVCAR-4 ovarian
UO-31 renal = system: UO-31 renal
KM12 colon = system: KM12 colon
NCI-H226 lung = system: NCI-H226 lung
OVCAR-3 ovarian = system: OVCAR-3 ovarian
CAKI-1 renal = system: CAKI-1 renal
HCT-116 colon = system: HCT-116 colon
A549 NSCLC = system: A549 NSCLC
COLO 205 colon = system: COLO 205 colon
PC-3 prostate = system: PC-3 prostate
BT-549 breast = system: BT-549 breast
SF-295 CNS = system: SF-295 CNS
HOP-92 NSCLC = system: HOP-92 NSCLC
RXF 393 renal = system: RXF 393 renal
EKVX NSCLC = system: EKVX NSCLC
OVCAR-8 ovarian = system: OVCAR-8 ovarian
MOLT-4 leukemia = system: MOLT-4 leukemia
786-0 renal = system: 786-0 renal
HT29 colon = system: HT29 colon
LOX IMVI melanoma = system: LOX IMVI melanoma
MDA-MB-231 breast = system: MDA-MB-231 breast
HCC-2998 colon = system: HCC-2998 colon
UACC-62 melanoma = system: UACC-62 melanoma
NCI-H522 lung = system: NCI-H522 lung
SK-MEL-5 melanoma = system: SK-MEL-5 melanoma
NCI-H23 lung = system: NCI-H23 lung
SNB-75 CNS = system: SNB-75 CNS
K-562 leukemia = system: K-562 leukemia
SW-620 colon = system: SW-620 colon
ACHN renal = system: ACHN renal
T-47D breast = system: T-47D breast
RPMI-8226 leukemia = system: RPMI-8226 leukemia
M14 melanoma = system: M14 melanoma
HS 578T breast = system: HS 578T breast
SF-268 CNS = system: SF-268 CNS
TK-10 renal = system: TK-10 renal
MCF7 breast = system: MCF7 breast
SK-MEL-2 melanoma = system: SK-MEL-2 melanoma
A498 renal = system: A498 renal
SK-OV-3 ovarian = system: SK-OV-3 ovarian
NCI/ADR-RES ovarian = system: NCI/ADR-RES ovarian
NCI-H460 lung = system: NCI-H460 lung
SN12C renal = system: SN12C renal

With `Cc1ccc(N(CC(=O)Nc2ccc(S(=O)(=O)NC3CCN(C)CC3)cc2)S(=O)(=O)c2ccc(Cl)cc2)cc1` the GI50 (HL-60(TB) leukemia) was 2.21 µM, the TGI (HL-60(TB) leukemia) was 4.93 µM and the GI50 (SK-MEL-28 melanoma) was 1.95 µM. It also gave a TGI (SK-MEL-28 melanoma) of 4.18 µM, a GI50 (MDA-MB-435) of 1.86 µM and a TGI (MDA-MB-435) of 3.57 µM. For the same compound, the GI50 (HOP-62 NSCLC) was 3.96 µM, the TGI (HOP-62 NSCLC) was 14.2 µM and the GI50 (DU-145 prostate) was 3.27 µM. The TGI (DU-145 prostate) was 11.2 µM, the GI50 (U251 CNS) was 2.35 µM and the TGI (U251 CNS) was 5.83 µM. It also gave a GI50 (CCRF-CEM leukemia) of 2.94 µM, a TGI (CCRF-CEM leukemia) of 11.1 µM and a GI50 (MALME-3M melanoma) of 1.72 µM. It also gave a TGI (MALME-3M melanoma) of 3.65 µM, a GI50 (SR leukemia) of 2.33 µM and a TGI (SR leukemia) of 7.46 µM. The GI50 (SNB-19 CNS) was 4.27 µM, the TGI (SNB-19 CNS) was 21.5 µM and the GI50 (HCT-15 colon) was 11.9 µM. For the same compound, the TGI (HCT-15 colon) was 27.5 µM, the GI50 (SF-539 CNS) was 1.85 µM and the TGI (SF-539 CNS) was 3.52 µM. The GI50 (OVCAR-5 ovarian) was 4.04 µM, the TGI (OVCAR-5 ovarian) was 17.1 µM and the GI50 (OVCAR-4 ovarian) was 5.13 µM. For the same compound, the TGI (OVCAR-4 ovarian) was 19.7 µM, the GI50 (UO-31 renal) was 14.7 µM and the TGI (UO-31 renal) was 30.3 µM. For the same compound, the GI50 (KM12 colon) was 2.85 µM, the TGI (KM12 colon) was 8.25 µM and the GI50 (NCI-H226 lung) was 5.37 µM. For the same compound, the TGI (NCI-H226 lung) was 23.4 µM, the GI50 (OVCAR-3 ovarian) was 2.99 µM and the TGI (OVCAR-3 ovarian) was 8.77 µM. For the same compound, the GI50 (CAKI-1 renal) was 14.7 µM, the TGI (CAKI-1 renal) was 28.4 µM and the GI50 (HCT-116 colon) was 1.69 µM. For the same compound, the TGI (HCT-116 colon) was 3.2 µM, the GI50 (A549 NSCLC) was 5 µM and the TGI (A549 NSCLC) was 16.3 µM. For the same compound, the GI50 (COLO 205 colon) was 1.89 µM, the TGI (COLO 205 colon) was 3.89 µM and the GI50 (PC-3 prostate) was 2.86 µM. The TGI (PC-3 prostate) was 10.7 µM, the GI50 (BT-549 breast) was 12.6 µM and the TGI (BT-549 breast) was 27.8 µM. The GI50 (SF-295 CNS) was 2.12 µM, the TGI (SF-295 CNS) was 5.49 µM and the GI50 (HOP-92 NSCLC) was 1.86 µM. The TGI (HOP-92 NSCLC) was 8.64 µM, the GI50 (RXF 393 renal) was 1.65 µM and the TGI (RXF 393 renal) was 3.84 µM. It also gave a GI50 (EKVX NSCLC) of 5.09 µM, a TGI (EKVX NSCLC) of 19.8 µM and a GI50 (OVCAR-8 ovarian) of 3.61 µM. The TGI (OVCAR-8 ovarian) was 12.1 µM, the GI50 (MOLT-4 leukemia) was 2.97 µM and the TGI (MOLT-4 leukemia) was 10.1 µM. The GI50 (786-0 renal) was 2.08 µM, the TGI (786-0 renal) was 5.23 µM and the GI50 (HT29 colon) was 2.88 µM. It also gave a TGI (HT29 colon) of 7.5 µM, a GI50 (LOX IMVI melanoma) of 1.89 µM and a TGI (LOX IMVI melanoma) of 3.76 µM. The GI50 (MDA-MB-231 breast) was 1.87 µM, the TGI (MDA-MB-231 breast) was 4.68 µM and the GI50 (HCC-2998 colon) was 2.1 µM. The TGI (HCC-2998 colon) was 5.25 µM, the GI50 (UACC-62 melanoma) was 1.74 µM and the TGI (UACC-62 melanoma) was 3.59 µM. The GI50 (NCI-H522 lung) was 2.24 µM, the TGI (NCI-H522 lung) was 4.62 µM and the GI50 (SK-MEL-5 melanoma) was 1.83 µM. It also gave a TGI (SK-MEL-5 melanoma) of 3.29 µM, a GI50 (NCI-H23 lung) of 10.1 µM and a TGI (NCI-H23 lung) of 24.5 µM. It also gave a GI50 (SNB-75 CNS) of 2.95 µM, a TGI (SNB-75 CNS) of 15.7 µM and a GI50 (K-562 leukemia) of 2.23 µM. It also gave a TGI (K-562 leukemia) of 5 µM, a GI50 (SW-620 colon) of 1.84 µM and a TGI (SW-620 colon) of 3.61 µM. For the same compound, the GI50 (ACHN renal) was 12 µM, the TGI (ACHN renal) was 27.6 µM and the GI50 (T-47D breast) was 2.03 µM. It also gave a TGI (T-47D breast) of 4.47 µM, a GI50 (RPMI-8226 leukemia) of 2.71 µM and a TGI (RPMI-8226 leukemia) of 7.89 µM. The GI50 (M14 melanoma) was 1.79 µM, the TGI (M14 melanoma) was 3.42 µM and the GI50 (HS 578T breast) was 2.27 µM. For the same compound, the TGI (HS 578T breast) was 6.74 µM, the GI50 (SF-268 CNS) was 2.67 µM and the TGI (SF-268 CNS) was 8.26 µM. For the same compound, the GI50 (TK-10 renal) was 13.7 µM, the TGI (TK-10 renal) was 27 µM and the GI50 (MCF7 breast) was 3.02 µM. For the same compound, the TGI (MCF7 breast) was 13.1 µM, the GI50 (SK-MEL-2 melanoma) was 2.15 µM and the TGI (SK-MEL-2 melanoma) was 4.86 µM. The GI50 (A498 renal) was 13.4 µM, the TGI (A498 renal) was 28.8 µM and the GI50 (SK-OV-3 ovarian) was 5.45 µM. For the same compound, the TGI (SK-OV-3 ovarian) was 17.8 µM, the GI50 (NCI/ADR-RES ovarian) was 16.8 µM and the TGI (NCI/ADR-RES ovarian) was 35.5 µM. The GI50 (NCI-H460 lung) was 2.02 µM, the TGI (NCI-H460 lung) was 4 µM and the GI50 (SN12C renal) was 3.05 µM. The TGI (SN12C renal) was 13.1 µM.
